From ChEMBL document CHEMBL1145799, “Spirocyclopropyl beta-lactams as mechanism-based inhibitors of serine beta-lactamases. Synthesis by rhodium-catalyzed cyclopropanation of 6-diazopenicillanate sulfone” (J Med Chem, 2003)

Legend:
Beta-lactamase = Beta-lactamase (Enterobacter cloacae, UniProt P05364); assay: In vitro inhibitory activity against Beta-lactamase AmpC of class C enzyme
Serratia marcescens = assay: In vitro antibacterial activity against Serratia marcescens GC4132 Beta-lactamase AmpC of class C enzyme; type: functional
Escherichia coli = assay: In vitro antibacterial activity against Escherichia coli GC6265; type: functional
[1] = biological target: Beta-lactamase TEM (Escherichia coli) (UniProt P62593)
Beta-lactamase TEM (Escherichia coli), sequence (P62593 whole entry): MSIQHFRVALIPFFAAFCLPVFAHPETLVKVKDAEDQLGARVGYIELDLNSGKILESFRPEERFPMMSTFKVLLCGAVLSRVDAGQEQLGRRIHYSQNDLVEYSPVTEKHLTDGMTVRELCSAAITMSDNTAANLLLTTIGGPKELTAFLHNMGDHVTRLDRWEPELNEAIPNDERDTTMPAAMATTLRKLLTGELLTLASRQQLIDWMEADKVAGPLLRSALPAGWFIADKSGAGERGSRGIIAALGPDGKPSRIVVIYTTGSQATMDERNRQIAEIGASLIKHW
Description: In vitro antibacterial activity against Escherichia coli GC4206 Beta-lactamase TEM-1 of class A enzyme

[2] = biological target: Beta-lactamase (Enterobacter cloacae) (UniProt P05364); conditions: Pseudomonas aeruginosa
Beta-lactamase (Enterobacter cloacae), sequence (P05364 21-381 limits assumed): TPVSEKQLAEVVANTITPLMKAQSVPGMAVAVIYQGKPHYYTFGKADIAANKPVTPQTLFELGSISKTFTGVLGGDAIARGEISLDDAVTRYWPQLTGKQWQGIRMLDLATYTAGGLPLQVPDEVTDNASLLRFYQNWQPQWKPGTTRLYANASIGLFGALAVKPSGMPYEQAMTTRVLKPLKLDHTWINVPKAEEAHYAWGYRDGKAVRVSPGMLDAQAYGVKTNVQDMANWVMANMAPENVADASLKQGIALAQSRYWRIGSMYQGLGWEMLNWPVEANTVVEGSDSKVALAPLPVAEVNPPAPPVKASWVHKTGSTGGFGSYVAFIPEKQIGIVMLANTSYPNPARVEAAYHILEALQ
Description: In vitro antibacterial activity against Pseudomonas aeruginosa Beta-lactamase AmpC of class C enzyme

[3] = biological target: Beta-lactamase (Enterobacter cloacae) (UniProt P05364); conditions: Serratia marcescens

Beta-lactamase, sequence (P05364 whole entry): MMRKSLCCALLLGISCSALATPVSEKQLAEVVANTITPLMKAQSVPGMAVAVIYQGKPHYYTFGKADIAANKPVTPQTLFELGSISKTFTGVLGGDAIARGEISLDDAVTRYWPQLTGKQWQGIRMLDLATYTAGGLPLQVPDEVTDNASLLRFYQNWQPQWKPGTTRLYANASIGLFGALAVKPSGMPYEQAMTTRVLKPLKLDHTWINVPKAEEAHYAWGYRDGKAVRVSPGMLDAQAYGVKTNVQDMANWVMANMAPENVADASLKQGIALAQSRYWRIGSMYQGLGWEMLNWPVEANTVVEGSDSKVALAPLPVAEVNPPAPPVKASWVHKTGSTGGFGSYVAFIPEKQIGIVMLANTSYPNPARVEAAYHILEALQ

## CC1(C)[C@H](C(=O)O)N2C(=O)[C@@]3(C[C@@H]3OC3CCCCC3)[C@H]2S1(=O)=O
Beta-lactamase
  IC50: 3200 nM

## CC(C)(C)[Si](C)(C)O[C@H]1C[C@]12C(=O)N1[C@@H](C(=O)O)C(C)(C)S(=O)(=O)[C@@H]12
Beta-lactamase
  IC50: 20 nM

## CC(C)(C)[Si](C)(C)O[C@@H]1CC12C(=O)N1[C@@H](C(=O)O)C(C)(C)S(=O)(=O)[C@@H]12 (single isomer, unassigned)
Beta-lactamase
  IC50: 400 nM

## CCN1CCN(C(=O)N[C@@H](C(=O)N[C@@H]2C(=O)N3[C@@H]2SC(C)(C)[C@@H]3C(=O)O)c2ccccc2)C(=O)C1=O.C[C@]1(Cn2ccnn2)[C@H](C(=O)O)N2C(=O)C[C@H]2S1(=O)=O [listing 1 of 2 here]
Serratia marcescens
  MIC: 32 µg/mL

## CC1(C)[C@H](C(=O)O)N2C(=O)[C@]3(C[C@@H]3OC3CCCCC3)[C@H]2S1(=O)=O.CCN1CCN(C(=O)N[C@@H](C(=O)N[C@@H]2C(=O)N3[C@@H]2SC(C)(C)[C@@H]3C(=O)O)c2ccccc2)C(=O)C1=O [listing 1 of 2 here]
Escherichia coli
  MIC: 64 µg/mL

## CCN1CCN(C(=O)N[C@@H](C(=O)N[C@@H]2C(=O)N3[C@@H]2SC(C)(C)[C@@H]3C(=O)O)c2ccccc2)C(=O)C1=O.C[C@]1(Cn2ccnn2)[C@H](C(=O)O)N2C(=O)C[C@H]2S1(=O)=O [listing 2 of 2 here]
[1]
  MIC: 4 µg/mL

## CC(C)(C)[Si](C)(C)O[C@H]1C[C@]12C(=O)N1[C@@H](C(=O)O)C(C)(C)S(=O)(=O)[C@@H]12.CCN1CCN(C(=O)N[C@@H](C(=O)N[C@@H]2C(=O)N3[C@@H]2SC(C)(C)[C@@H]3C(=O)O)c2ccccc2)C(=O)C1=O [listing 1 of 2 here]
Escherichia coli
  MIC: < 0.06 µg/mL

## CC(C)(C)[Si](C)(C)O[C@H]1CC12C(=O)N1C(C(=O)O)C(C)(C)S(=O)(=O)[C@@H]12 (single isomer, unassigned)
Beta-lactamase
  IC50: 4100 nM

## CC1(C)[C@H](C(=O)O)N2C(=O)[C@]3(C[C@@H]3OC3CCCCC3)[C@H]2S1(=O)=O
Beta-lactamase
  IC50: 30 nM

## CCN1CCN(C(=O)N[C@@H](C(=O)N[C@@H]2C(=O)N3[C@@H]2SC(C)(C)[C@@H]3C(=O)O)c2ccccc2)C(=O)C1=O [PIPERACILLIN]
Escherichia coli
  MIC: > 64 µg/mL

## CC(C)(C)[Si](C)(C)O[C@H]1C[C@]12C(=O)N1[C@@H](C(=O)O)C(C)(C)S(=O)(=O)[C@@H]12.CCN1CCN(C(=O)N[C@@H](C(=O)N[C@@H]2C(=O)N3[C@@H]2SC(C)(C)[C@@H]3C(=O)O)c2ccccc2)C(=O)C1=O [listing 2 of 2 here]
[1]
  MIC: 4 µg/mL
[2]
  MIC: 8 µg/mL
[3]
  MIC: 8 µg/mL

## CC1(C)[C@H](C(=O)O)N2C(=O)[C@]3(C[C@@H]3OC3CCCCC3)[C@H]2S1(=O)=O.CCN1CCN(C(=O)N[C@@H](C(=O)N[C@@H]2C(=O)N3[C@@H]2SC(C)(C)[C@@H]3C(=O)O)c2ccccc2)C(=O)C1=O [listing 2 of 2 here]
[1]
  MIC: 8 µg/mL

## CC1(C)[C@H](C(=O)O)N2C(=O)[C@@]3(C[C@H]3OC3CCCCC3)[C@H]2S1(=O)=O
Beta-lactamase
  IC50: > 3200 nM
